Assay results from patent publication US20260335314A1, “CRYSTALLINE SALTS OR AMORPHOUS FORMS OF 2-((1H-PYRAZOL-3-YL)METHYL)-6-((6-AMINOPYRIDIN-2-YL)METHYL)-4-METHYL-4,6-DIHYDRO -5H-THIAZOLO[5',4':4,5]PYRROLO[2,3-D]PYRIDAZIN-5-ONE” (Agios Pharmaceuticals, Inc., priority 2023, published 2026).
Converted amounts (≈) assume the structure as drawn.

Experiments:
[1] = Kinetic solubility in biorelevant media; format: physicochemical
Method: (§1) Solubility samples were prepared by weighing about 10 mg of each salt and adding 1 mL of media and vortexed briefly to obtain suspensions. […] For such instances, the solubility is calculated as greater than (>).
(§2) The sample vials were capped and wrapped in aluminum foil, and placed on a shaker at 37° C. The shaker was set at about 100 rpm and vials were removed at specified time points. The vials were observed, and the supernatants were transferred to Eppendorf tubes and centrifuged at 3K for 10 minutes. The clear supernatants were transferred to HPLC vials. The samples were diluted prior to HPLC analysis using the dilution media by 2× or used without dilution. pH was measured of the 24 hour timepoint after centrifugation using a micro pH probe.
• pH 2 buffer USP: Mixed 50 mL of 0.2M potassium chloride and 13 mL 0.2M HCl, diluted to 200 mL with water. • pH 4.5 buffer USP: 5.44 g of potassium dihydrogen phosphate was diluted to 1000 mL with water. • pH 6.8 buffer USP: Mixed 50 mL of 0.2M potassium phosphate and 22.4 mL 0.2M sodium hydroxide. Diluted with water to 200 mL. • SGF: 2.0109 g of NaCl was dissolved in water, added 7 mL of conc. HCl and diluted to 1 L. • FeSSIF: 4.0321 g of NaOH and 11.8726 g of NaCl were dissolved in water, added 8.65 mL of glacial acetic acid, […] 0.4247 g of NaOH, 3.9548 g of sodium phosphate monobasic monohydrate and 6.1900 g of NaCl were dissolved in water, adjusted the pH to 6.5 and diluted to 1 L.
Kinetic solubility was determined in biorelevant media. At each time point, the solution was analyzed by HPLC. The solid residue was analyzed by XRPD at selected time points. The pH of the solution was measured at 24 hours.

[2] = Pharmacokinetics / absolute bioavailability in male Sprague Dawley rats; format: in vivo
Method: Twenty-one (21) male Sprague Dawley rats (purchased from Shanghai Laboratory Animal Center Co., Ltd., Shanghai, China) were randomized into 7 groups (3 animals per group). The animals fasted overnight, the forms of Compound 1 shown in Table 7 were administered by oral gavage, and the animals were fed 4 hours post-dose.
Blood was serially collected from each animal at 0 (pre-dose), 0.083, 0.25, 0.5, 1, 2, 4, 8, and 24 h post-dose. For each collection, the animal was restrained manually, and approximately 150 μL of blood sample was collected via the tail vein into K2EDTA tubes. Plasma samples were stored at approximately −70° C. until analysis.
To enable the calculation of absolute bioavailability, Compound 1 was formulated as a solution in 10% N-methyl-2-pyrrolidone, 10% Solutol HS 15, and 80% saline and administered at 1 mg/kg as intravenous (IV) bolus dose to a separate group of male Sprague Dawley rats, and blood samples were collected at similar timepoints to those shown above. Further, plasma samples were obtained from the collected samples and stored at approximately −70° C. until analysis.
The concentration of Compound 1 in the plasma samples was determined by LC-MS/MS analysis.
A 20 μL aliquot of each plasma sample was mixed with 200 μL of acetonitrile containing glipizide as an internal standard (40 ng/mL). The resulting mixture was vortexed at 1500 rpm for 2 min and centrifuged at 5800 rpm for 10 min. A 1 μL sample from the supernatant was injected into LC-MS/MS.
LC-MS/MS analysis was conducted on a UPLC/MS-MS (API 6500+) system under the conditions outlined in Table 8
The absolute bioavailability of each form of Compound 1 was determined by dividing the AUCinf of the form in question by the AUCinf obtained historical data by IV administration of Compound 1.

[3] = Stability study of Form A (storage); format: physicochemical
[4] = Dynamic vapor sorption (moisture uptake); format: physicochemical; settings: 25° C., from 5% to 95% relative humidity
Method: Dynamic Vapor Sorption (DVS) was carried out using a TA Instruments Q5000 Dynamic Vapor Sorption analyzer. The instrument was calibrated with standard weights and a sodium bromide standard for humidity. Approximately 10-25 mg of sample was loaded into a metal-coated quartz pan for analysis. […] The movement from one step to the next occurred either after satisfying the equilibrium criterion of 0.01% weight change or, if the equilibrium criterion was not met, after one hour. The percent weight change values were calculated using Microsoft Excel®.

[5] = Physicochemical properties of Form A (summary)
pH solubility in buffers = format: physicochemical; settings: for pH (24 h): pH of solution at 24 h
Method: as §1, §2
• pH 2 buffer USP: Mixed 50 mL of 0.2M potassium chloride and 13 mL 0.2M HCl, diluted to 200 mL with water. • pH 4.5 buffer USP: 5.44 g of potassium dihydrogen phosphate was diluted to 1000 mL with water. • pH 6.8 buffer USP: Mixed 50 mL of 0.2M potassium phosphate and 22.4 mL 0.2M sodium hydroxide. Diluted with water to 200 mL. • SGF: 2.0109 g of NaCl was dissolved in water, added 7 mL of conc. HCl and diluted to 1 L. • FeSSIF: 4.0321 g of NaOH and 11.8726 g of NaCl were dissolved in water, added 8.65 mL of glacial acetic acid, adjusted the pH to 5.0 and diluted to 1 L. • FaSSIF: 0.4247 g of NaOH, 3.9548 g of sodium phosphate monobasic monohydrate and 6.1900 g of NaCl were dissolved in water, adjusted the pH to 6.5 and diluted to 1 L.
At each time point, the solution was analyzed by HPLC and residue was vacuum dried and analyzed by XRPD. The pH of the solution was measured at 24 hours.

Compound: Cn1c2nc(Cc3cc[nH]n3)sc2c2cnn(Cc3cccc(N)n3)c(=O)c21 [Form A]
- solubility ([1]; FaSSIF pH 6.5, 10 min, 37 °C, 10 min): 120 µg/mL (≈ 306 µM)
- solubility ([1]; FaSSIF pH 6.5, 30 min, 37 °C, 30 min): 120 µg/mL (≈ 306 µM)
- solubility ([1]; FaSSIF pH 6.5, 1 h, 37 °C, 60 min): 110 µg/mL (≈ 280 µM)
- solubility ([1]; FaSSIF pH 6.5, 2 h, 37 °C, 120 min): 160 µg/mL (≈ 408 µM)
- solubility ([1]; FaSSIF pH 6.5, 4 h, 37 °C, 240 min): 170 µg/mL (≈ 433 µM)
- solubility ([1]; FaSSIF pH 6.5, 24 h, 37 °C, 1440 min): 180 µg/mL (≈ 459 µM)
- pH (24 h) ([1]; FaSSIF pH 6.5, pH of solution at 24 h): 3.91
- solubility ([1]; FeSSIF pH 5.0, 10 min, 37 °C, 10 min): 550 µg/mL (≈ 1400 µM)
- solubility ([1]; FeSSIF pH 5.0, 30 min, 37 °C, 30 min): 100 µg/mL (≈ 255 µM)
- solubility ([1]; FeSSIF pH 5.0, 1 h, 37 °C, 60 min): 230 µg/mL (≈ 586 µM)
- solubility ([1]; FeSSIF pH 5.0, 2 h, 37 °C, 120 min): 70 µg/mL (≈ 178 µM)
- solubility ([1]; FeSSIF pH 5.0, 4 h, 37 °C, 240 min): 70 µg/mL (≈ 178 µM)
- solubility ([1]; FeSSIF pH 5.0, 24 h, 37 °C, 1440 min): 30 µg/mL (≈ 76.4 µM)
- pH (24 h) ([1]; FeSSIF pH 5.0, pH of solution at 24 h): 5.74
- pH (24 h) ([1]; SGF pH 1.2, pH of solution at 24 h): 0.87
- solubility at 10 min ([1]; sgf, pH 1.2, SGF pH 1.2, 10 min, 37 °C): 2850 µg/mL (≈ 7260 µM)
- solubility at 0.5 h ([1]; sgf, pH 1.2, SGF pH 1.2, 30 min, 37 °C): 4960 µg/mL (≈ 12600 µM)
- solubility at 1 h ([1]; sgf, pH 1.2, SGF pH 1.2, 1 h, 37 °C): 2840 µg/mL (≈ 7240 µM)
- solubility at 2 h ([1]; sgf, pH 1.2, SGF pH 1.2, 2 h, 37 °C): 3240 µg/mL (≈ 8260 µM)
- solubility at 4 h ([1]; sgf, pH 1.2, SGF pH 1.2, 4 h, 37 °C): 3770 µg/mL (≈ 9610 µM)
- solubility at 24 h ([1]; sgf, pH 1.2, SGF pH 1.2, 24 h, 37 °C): 2880 µg/mL (≈ 7340 µM)
- absolute bioavailability, comparison with other forms ([2]; oral gavage, 10 mg/kg): higher than the measured bioavailability of the other forms of Compound 1
- AUCinf ([2]; oral gavage, 10 mg/kg, fasted overnight, plasma): 9426 ng·h/mL
- Absolute % F ([2]; oral gavage, 10 mg/kg, vs historical IV AUCinf, 10 mg/kg): 60%
- plasma concentration-time profiles and pharmacokinetic parameters ([2]; summary statement): favorable plasma concentration-time profiles and pharmacokinetic parameters
- degradation ([3]; one month under 25±2° C./60±5% RH): No degradation was observed
- degradation ([3]; one month under 40±2° C./75±5% RH): No degradation was observed
- moisture uptake (DVS) [4]: about 0.08%
- stability in solvent systems ([5]; especially containing water): stability in multiple solvent systems
- stability in humidity ([5]; relative humidity): at least 20 % RH
- particle size ([5]; under microscope): below 20 μm
- stability in humidity (water activity) ([5]; water activity): ≥ 0.2
- solubility at 2 h (pH solubility in buffers; 0.1 n hcl, 2 h, 37 °C): 1970 µg/mL (≈ 5020 µM)
- solubility at 24 h (pH solubility in buffers; 0.1 n hcl, 24 h, 37 °C): 1480 µg/mL (≈ 3770 µM)
- solubility (pH solubility in buffers; pH 2 (USP), 2 h, 37 °C, 120 min): 400 µg/mL (≈ 1020 µM)
- solubility (pH solubility in buffers; pH 2 (USP), 24 h, 37 °C, 1440 min): 300 µg/mL (≈ 764 µM)
- pH (24 h) (pH solubility in buffers; pH 2 (USP)): 2.06
- solubility (pH solubility in buffers; pH 4.5 (USP), 2 h, 37 °C, 120 min): 60 µg/mL (≈ 153 µM)
- solubility (pH solubility in buffers; pH 4.5 (USP), 24 h, 37 °C, 1440 min): 50 µg/mL (≈ 127 µM)
- pH (24 h) (pH solubility in buffers; pH 4.5 (USP)): 4.32
- solubility (pH solubility in buffers; pH 6.8 (USP), 2 h, 37 °C, 120 min): 40 µg/mL (≈ 102 µM)
- solubility (pH solubility in buffers; pH 6.8 (USP), 24 h, 37 °C, 1440 min): 70 µg/mL (≈ 178 µM)
- pH (24 h) (pH solubility in buffers; pH 6.8 (USP)): 5.63
